What is called DC50 is the midpoint of the concentration-degradation curve. A high value points to degradation only at high concentration. A word on the IC50: it is the concentration needed to halve the response being measured.

This note sets out measurements from patent EP4624466A1, “DEGRADER FOR DECOMPOSING CMET PROTEIN, AND PHARMACEUTICAL COMPOSITION COMPRISING SAME” (Innocure Therapeutics, Inc., priority 2022, dated 2024).

The target of experiment [1] is T1, c-MET (Homo sapiens, UniProt P08581). The experiment can be described thus: c-MET protein degradation (Simple Western), MKN-45. In kind it is cell-based. The following applies: c-MET overexpressing gastric cancer cell line MKN-45, treated 24 hours; Table 2. Details: assess the resolution of the compound of the present invention for c-MET expressed in cells; endogenous in cells; host or cells: MKN45 (human gastric cancer). In a few lines:
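c-MET level, GAPDH-normalized and relative to 0.1% DMSO-treated cells, measured by automated capillary Western (3 µg protein) after compound exposure of 48 h for lung or 24 h for gastric cancer lines; DC50 = concentration giving 50% reduction.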

The subject of a further experiment is MKN-45. The experiment can be described thus: Cell viability / antiproliferative assay (WST-8), MKN-45.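 Note: MKN-45 is a human gastric cancer line overexpressing c-MET, growth inhibition read as WST-8 formazan absorbance at 450 nm after 2 h dye incubation.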 The following applies: Homo sapiens, MKN-45, 72 h, read-out: MKN-45 IC50.
In a further experiment the test system is Hs746T. The experiment can be described thus: Cell viability / antiproliferative assay (WST-8), Hs746T. In kind it is cell-based. The following applies: Homo sapiens, Hs746T cells, 72 hours, Table 2. In general terms: Tetrazolium assays rely on reduction of a dye to a coloured formazan, in cell work by metabolically active cells.
In experiment [2] the target is T1, c-MET. As to the kind of experiment: c-MET protein degradation (Simple Western), EBC-1. In kind it is cell-based. Details: assess the resolution of the compound of the present invention for c-MET expressed in cells; endogenous in cells; host or cells: EBC-1 (human lung cancer). Particulars: c-MET overexpressing lung cancer cell line EBC-1, treated 48 hours; Table 2. The protocol:
(§1) In order to assess the resolution of the compound of the present invention for c-MET expressed in cells, cells were dispensed in a 12-well plate at a concentration of 2 × 10^5 cells/well, and then gastric cancer cell lines were treated with samples for 24 hours and lung cancer cell lines were treated for 48 hours. Cell lysates were collected using a scraper on ice, centrifuged at 4°C15,000 rpm for 30 min to obtain a protein-containing supernatant. Protein expression was then measured using the Simple Western Automated Western Blot System Abby instrument using 3 µg of protein for each sample. SDS and heat-induced denaturation proteins were separated by molecular weight, attached to capillary, reacted with anti-c-MET or anti-GAPDH antibodies, which are primary antibodies, and then reacted with HRP-conjugated secondary antibodies, and analyzed the protein expression signal with compass software. Protein expression was normalized based on the expression value of GAPDH, and protein development in each sample was measured as a percentage (%) based on 100% of samples treated with 0.1% DMSO carriers, and DC50 (concentration of a compound where 50% protein inhibition is achieved) was calculated from the change in protein expression amount due to compound treatment.

For the next experiment, the system named is SNU-638. The experiment can be described thus: Cell viability / antiproliferative assay (WST-8), SNU-638. In kind it is cell-based, human. The following applies: read-out: SNU-638 IC50.
A further experiment has as its system EBC-1. The experiment can be described thus: Cell viability / antiproliferative assay (WST-8), EBC-1. In kind it is cell-based, human. The following applies: read-out: EBC-1 IC50.
Experiment [3] deals with T1, c-MET. As to the kind of experiment: c-MET protein degradation (Simple Western), SNU-638. In kind it is cell-based. Details: assess the resolution of the compound of the present invention for c-MET expressed in cells; endogenous in cells; host or cells: SNU638 (human gastric cancer). Particulars: c-MET overexpressing gastric cancer cell line SNU-638, treated 24 hours. The protocol:
as §1

[4] abbreviates: Homo sapiens, SNU-638 cells, 72 hours, WST-8, Table 2.
The mark [5] stands for this setting: Homo sapiens, EBC-1 cells, 72 hours, WST-8, Table 2.

Like-named read-outs stand apart in the source and are kept apart here.

T1 sequence (P08581 25-1390): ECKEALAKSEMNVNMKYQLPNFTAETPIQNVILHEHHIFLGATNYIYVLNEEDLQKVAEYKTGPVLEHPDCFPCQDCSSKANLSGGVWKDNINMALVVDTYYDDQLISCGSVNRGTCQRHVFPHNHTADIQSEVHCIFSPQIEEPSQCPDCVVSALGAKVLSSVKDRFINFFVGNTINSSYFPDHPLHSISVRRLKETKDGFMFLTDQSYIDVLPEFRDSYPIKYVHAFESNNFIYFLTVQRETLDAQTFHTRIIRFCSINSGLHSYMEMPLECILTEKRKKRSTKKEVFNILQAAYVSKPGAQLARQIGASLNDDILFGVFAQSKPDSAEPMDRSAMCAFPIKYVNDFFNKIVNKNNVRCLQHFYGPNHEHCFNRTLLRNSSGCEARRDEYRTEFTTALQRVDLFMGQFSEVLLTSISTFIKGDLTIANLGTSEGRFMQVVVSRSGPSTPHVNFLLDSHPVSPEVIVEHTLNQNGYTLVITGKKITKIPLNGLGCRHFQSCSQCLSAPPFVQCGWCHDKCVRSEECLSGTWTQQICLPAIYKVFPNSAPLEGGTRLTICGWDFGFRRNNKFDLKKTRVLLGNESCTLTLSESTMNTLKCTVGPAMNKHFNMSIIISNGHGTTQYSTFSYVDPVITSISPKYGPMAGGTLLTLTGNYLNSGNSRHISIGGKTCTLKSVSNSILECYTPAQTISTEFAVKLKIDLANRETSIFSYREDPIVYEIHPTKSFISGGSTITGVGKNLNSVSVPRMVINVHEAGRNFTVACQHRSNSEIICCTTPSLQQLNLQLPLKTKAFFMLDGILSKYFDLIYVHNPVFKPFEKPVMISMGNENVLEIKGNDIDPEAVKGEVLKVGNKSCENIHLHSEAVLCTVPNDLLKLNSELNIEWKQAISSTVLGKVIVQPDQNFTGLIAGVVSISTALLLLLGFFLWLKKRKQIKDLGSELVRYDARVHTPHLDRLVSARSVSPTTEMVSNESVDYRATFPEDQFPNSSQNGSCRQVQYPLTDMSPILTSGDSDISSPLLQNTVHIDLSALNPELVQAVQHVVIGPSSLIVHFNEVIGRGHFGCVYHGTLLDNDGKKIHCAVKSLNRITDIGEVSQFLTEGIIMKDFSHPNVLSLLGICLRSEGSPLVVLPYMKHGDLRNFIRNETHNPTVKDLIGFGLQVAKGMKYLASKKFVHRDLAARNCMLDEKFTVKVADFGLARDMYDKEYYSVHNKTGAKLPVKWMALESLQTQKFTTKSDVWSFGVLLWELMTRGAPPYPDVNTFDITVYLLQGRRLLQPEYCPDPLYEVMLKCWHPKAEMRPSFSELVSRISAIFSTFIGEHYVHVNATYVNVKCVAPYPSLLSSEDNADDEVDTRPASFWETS
Method for Hs746T: c-MET overexpressing human gastric cancer cell lines [MKN45] and [SNU638] were cultured in RPMI medium with 10% fetal bovine serum, penicillin (100U/ml), and streptomycin (100mg/ml), and c-MET exon 14 skipping mutant human gastric cancer cell lines [Hs746T] were cultured in DMEM media. The c-MET overexpressing human lung cancer cell line EBC-1 was cultured in MEM media with the addition of 10% fetal bovine serum, penicillin (100U/ml), and streptomycin (100mg/ml). […] The compound synthesized in accordance with the present invention was prepared with a raw material solution of 10 mM dissolved in DMSO (dimethyl sulfoxide), and was sequentially diluted and processed.
In order to observe the inhibitory activity on cell growth, cells were dispensed in a 96-well plate at a concentration of 5,000 cells/well, and then treated with the compound prepared at various concentrations for 72 hours. The viability of the cells was calculated using GraphicPad Prism 8.0 software by adding 10 ml per well of WST-8 (water soluble tetrazolium salt) sample, which reacts with dehydrogenase present in the electron transport system of mitochondria to produce formazon, incubated for 2 hours, and measured absorbance at 450 nm.

On to `Cc1nn(C2CCC(=O)NC2=O)c(=O)c2ccc(N3CCN(C(=O)CCN4CCC(COc5cnc(-c6cccc(Cn7nc(-c8cccc(C#N)c8)ccc7=O)c6)nc5)CC4)CC3)cc12` (stereo not drawn) [ICT-0001224], for which the DC50 on c-MET [1] is below 100 nM. In addition, the IC50 in the experiment with MKN-45 and with Hs746T was below 100 nM each time.

On c-MET [1], `Cc1nn(C2CCC(=O)NC2=O)c(=O)c2cc(N3CCN(C(=O)CCCN4CCC(COc5cnc(-c6cccc(Cn7nc(-c8cccc(C#N)c8)ccc7=O)c6)nc5)CC4)CC3)ccc12` (stereo not drawn) [ICT-0001228] registered a DC50 below 100 nM. Further, the IC50 in the experiment on Hs746T lay in the range of 100 to 1000 nM.

As to `N#Cc1cccc(-c2ccc(=O)n(Cc3cccc(-c4ncc(-c5cccc(CN6CCN(c7ccc(NC8CCC(=O)NC8=O)cc7F)CC6)c5)cn4)c3)n2)c1` (stereo not drawn) [ICT-0001434], the values for the DC50 at c-MET [2] and at c-MET [3] (Table 2) were below 100 nM and above 1000 nM, respectively. For the same molecule, the IC50 is below 100 nM in the experiment with SNU-638 (Homo sapiens, SNU-638, 72 h) and below 100 nM with EBC-1 (Homo sapiens, EBC-1, 72 h).

On to `N#Cc1cccc(-c2ccc(=O)n(Cc3cccc(-c4ncc(OCC5CCN(CCCC(=O)N6CCN(c7ccc8c(=O)n(C9CCC(=O)NC9=O)ncc8c7)CC6)CC5)cn4)c3)n2)c1` (stereo not drawn) [ICT-0001226], for which the IC50 in the experiment with MKN-45 and in the experiment with Hs746T was below 100 nM throughout.

For the molecule `Cn1cc(-c2cnc3c(nnn3C[C@@H]3CN(c4ncc(-c5ccc(CN6CCN(CC(=O)N7CCN(c8ccc(NC9CCC(=O)NC9=O)cc8F)CC7)CC6)cc5)cn4)CCO3)n2)cn1` (stereo partly drawn) [ICT-0001379], the IC50 is below 100 nM with SNU-638 (SNU-638 cells, 72 hours, WST-8, Table 1) and below 100 nM with EBC-1 (EBC-1 cells, 72 hours, WST-8, Table 1). Further, at c-MET [3] (Table 1), the DC50 is below 100 nM.

Take `N#Cc1cccc(-c2ccc(=O)n(Cc3cccc(-c4ncc(OCC5CCN(CC6CN(c7ccc(NC8CCC(=O)NC8=O)cc7F)C6)CC5)cn4)c3)n2)c1` (stereo not drawn) [ICT-0001425]: the DC50 on c-MET [2] and at c-MET [3] (Table 2) was below 100 nM each time. Besides, the IC50 with SNU-638 (SNU-638 cells, 72 hours, WST-8, Table 2) was below 100 nM; in the experiment on EBC-1 (EBC-1 cells, 72 hours, WST-8, Table 2), below 100 nM.

As for `N#Cc1cccc(-c2ccc(=O)n(Cc3cccc(-c4ncc(OCC5CCN(CCN6CCN(c7ccc8c(=O)n(C9CCC(=O)NC9=O)ncc8c7)CC6)CC5)cn4)c3)n2)c1` (stereo not drawn) [ICT-0001276, 3-(1-{[3-(5-{[1-(2-{4-[2-(2,6-dioxopiperidin-3-yl)-1-oxo-1,2-dihydropetalazine-6-yl]piperazine-1-il}ethyl)piperidine-4-il]methoxy}pyrimidine-2-yl)phenyl]methyl}-6-oxo-1,6-dihydropyridazine-3-yl)benzonitrile], the DC50 on c-MET [2] is above 1000 nM; on c-MET [1], below 100 nM. Besides, the IC50 in the experiment with SNU-638 (Homo sapiens, SNU-638, 72 h) was below 100 nM; in the experiment with MKN-45 it was below 100 nM.

On c-MET [2], `N#Cc1cccc(-c2ccc(=O)n(Cc3cccc(-c4ncc(-c5cccc(CN6CCC(CN7CCN(c8ccc(NC9CCC(=O)NC9=O)cc8F)CC7)CC6)c5)cn4)c3)n2)c1` (stereo not drawn) [ICT-0001450] came in with a DC50 below 100 nM. Moreover, the IC50 with SNU-638 (Homo sapiens, SNU-638, 72 h) is below 100 nM; in the experiment on EBC-1 (Homo sapiens, EBC-1, 72 h), below 100 nM.

Regarding `N#Cc1cccc(-c2ccc(=O)n(Cc3cccc(-c4ncc(OCC5CCN(CC(=O)N6CCN(CC7CCN(c8ccc(NC9CCC(=O)NC9=O)cc8F)CC7)CC6)CC5)cn4)c3)n2)c1` (stereo not drawn) [ICT-0001468, 3-(1-{[3-(5-{[1-(2-{4-[(1-{4-[(2,6-dioxopiperidin-3-yl)amino]-2-fluorophenyl}piperidine-4-yl)methyl]piperazine-1-yl}-2-oxoethyl)piperidine-4-yl]methoxy}pyrimidine-2-yl)phenyl]methyl}-6-oxo-1,6-dihydropyridazine-3-yl)benzonitrile], the values for the DC50 at c-MET [2] and on c-MET [3] (Table 2) were below 100 nM and 100 to 1000 nM, respectively. In addition, the IC50 in the experiment with SNU-638 (setting [4]) and in the experiment on EBC-1 (setting [5]) was below 100 nM each time.

`N#Cc1cccc(-c2ccc(=O)n(Cc3cccc(-c4ncc(OCC5CCN(CC(=O)N6CC(N7CCN(c8ccc9c(=O)n(C%10CCC(=O)NC%10=O)ncc9c8)CC7)C6)CC5)cn4)c3)n2)c1` (stereo not drawn) [ICT-0001232]: the 50% degradation concentration (DC50) at c-MET [2], on c-MET [1] and at c-MET [3] (Table 2) was below 100 nM in each case. Also, the IC50 was below 100 nM with MKN-45 and below 100 nM with EBC-1 (Homo sapiens, EBC-1, 72 h).

For the molecule `N#Cc1cccc(-c2ccc(=O)n(Cc3cccc(-c4ncc(OCC5CCN(C(=O)CN6CCN(c7ccc(NC8CCC(=O)NC8=O)cc7F)CC6)CC5)cn4)c3)n2)c1` (stereo not drawn) [ICT-0001494], the DC50 on c-MET [2] and on c-MET [3] (Table 2) was below 100 nM throughout. Further, the IC50 in the experiment with SNU-638 (Homo sapiens, SNU-638, 72 h) was below 100 nM; with EBC-1 (Homo sapiens, EBC-1, 72 h), below 100 nM.

On to `N#Cc1cccc(-c2ccc(=O)n(Cc3cccc(-c4ncc(-c5cccc(CN6CCN(c7ccc(C8CCC(=O)NC8=O)cn7)CC6)c5)cn4)c3)n2)c1` (stereo not drawn) [ICT-0001449], for which the values for the DC50 at c-MET [2] and on c-MET [3] (Table 2) were below 100 nM and above 1000 nM, respectively. The IC50 was below 100 nM in the experiment with SNU-638 (Homo sapiens, SNU-638, 72 h) and below 100 nM with EBC-1 (Homo sapiens, EBC-1, 72 h).

`N#Cc1cccc(-c2ccc(=O)n(Cc3cccc(-c4ncc(OCC5CCN(CCN6CCN(c7ccc(NC8CCC(=O)NC8=O)cc7F)CC6)CC5)cn4)c3)n2)c1` (stereo not drawn) [ICT-0001433, 3-(1-(3-(5-((1-(1-(2-(4-((2,6-dioxopiperidine-3-yl)amino)-2-fluorophenyl)piperazine-1-il)ethyl)piperidine-4-il)methoxy)pyrimidine-2-yl)benzyl)6-oxo-1,6-dihydropyridazine-3-yl)benzonitrile]: the DC50 at c-MET [2] and on c-MET [3] (Table 2) was below 100 nM in each case. Moreover, the IC50 is below 100 nM with SNU-638 (Homo sapiens, SNU-638, 72 h) and below 100 nM in the experiment with EBC-1 (Homo sapiens, EBC-1, 72 h).

Regarding `Cc1nn(C2CCC(=O)NC2=O)c(=O)c2ccc(N3CCN(C(=O)CCCCN4CCC(COc5cnc(-c6cccc(Cn7nc(-c8cccc(C#N)c8)ccc7=O)c6)nc5)CC4)CC3)cc12` (stereo not drawn) [ICT-0001250], the IC50 with MKN-45 and with Hs746T was below 100 nM in each case.

Consider `N#Cc1cccc(-c2ccc(=O)n(Cc3cccc(-c4ncc(OCC5CCN(CC(=O)N6CCC(CN7CCN(c8ccc(NC9CCC(=O)NC9=O)cc8F)CC7)CC6)CC5)cn4)c3)n2)c1` (stereo not drawn) [ICT-0001447, 3-(1-{[3-(5-{[1-(2-{4-[(4-{4-[(2,6-dioxopiperidin-3-yl)amino]-2-fluorophenyl}piperazine-1-yl)methyl]piperidine-1-yl}-2-oxoethyl)piperidine-4-yl]methoxy}pyrimidine-2-yl)phenyl]methyl}-6-oxo-1,6-dihydropyridazine-3-yl)benzonitrile], for which the DC50 was below 100 nM at c-MET [2] and 100 to 1000 nM on c-MET [3] (Table 2). Further, the IC50 with SNU-638 (setting [4]) and in the experiment with EBC-1 (setting [5]) was below 100 nM in each case.

For the molecule `N#Cc1cccc(-c2ccc(=O)n(Cc3cccc(-c4ncc(OCC5CCN(c6ccc(NC7CCC(=O)NC7=O)cc6F)CC5)cn4)c3)n2)c1` (stereo not drawn) [ICT-0001383], the DC50 at c-MET [2] and at c-MET [3] (Table 2) was below 100 nM each time. Besides, the IC50 is below 100 nM in the experiment on SNU-638 (Homo sapiens, SNU-638, 72 h) and below 100 nM in the experiment on EBC-1 (Homo sapiens, EBC-1, 72 h).

On to `Cc1nn(C2CCC(=O)NC2=O)c(=O)c2ccc(N3CCN(C(=O)CCCN4CCC(COc5cnc(-c6cccc(Cn7nc(-c8cccc(C#N)c8)ccc7=O)c6)nc5)CC4)CC3)cc12` (stereo not drawn) [ICT-0001227, 3-(1-(3-(5-((1-(4-(4-(2-(2,6-dioxopiperidin-3-yl)-4-methyl-1-oxo-1,2-dihydropetalazine-6-yl)piperazine-1-yl)4-oxobutyl)piperidine-4-yl)methoxy)pyrimidine-2-yl)benzyl)6-oxo-1,6-dihydropyridazine-3-yl)benzonitrile], for which the IC50 in the experiment on MKN-45 and with Hs746T was below 100 nM throughout.

At c-MET [2], `Cc1nn(C2CCC(=O)NC2=O)c(=O)c2cc(N3CCN(CCN4CCC(COc5cnc(-c6cccc(Cn7nc(-c8cccc(C#N)c8)ccc7=O)c6)nc5)CC4)CC3)ccc12` (stereo not drawn) [ICT-0001278, 3-(1-{[3-(5-{[1-(2-{4-[3-(2,6-dioxopiperidin-3-yl)-1-methyl-4-oxo-3,4-dihydropthalazine-6-yl]piperazine-1-yl}ethyl)piperidine-4-day]methoxy}pyrimidine-2-yl)phenyl]methyl}6-oxo-1,6-dihydropyridazine-3-yl)benzonitrile] displayed a DC50 above 1000 nM. In the experiment with MKN-45, the IC50 is below 100 nM.
